Laboratory results: ChEMBL document CHEMBL2346628, “Real-time analysis of membrane permeabilizing effects of oleanane saponins” (Bioorg Med Chem, 2013)
Active and inactive are the calls of the source. No cut-off for these calls is given here.

Legend:
[1] = Hemolytic activity against human RBC at 48 uM after 30 mins; type: ADME, cell-based; settings: erythrocyte, 0.5 h
[2] = Hemolytic activity against human RBC at 24 uM after 30 mins relative to control; type: ADME, cell-based, Erythrocyte; settings: red blood cells (RBC), read-out: Activity
[3] = Hemolytic activity against human RBC up to 12 uM after 30 mins; type: ADME, cell-based; settings: erythrocyte, 0.5 h
[4] = system: ECV-304; experiment: Membrane permeabilization effect on lysosome of human ECV304 cells assessed as induction of membrane lysis at 3 to 48 uM after 1 hr by N-Acetylglucosaminidase release assay; type: functional, cell-based
[5] = system: ECV-304; experiment: Membrane permeabilization effect on lysosome of human ECV304 cells assessed as induction of membrane lysis up to 6 uM after 1 hr by N-Acetylglucosaminidase release assay; type: functional, cell-based
[6] = system: ECV-304; experiment: Membrane permeabilization effect on human ECV304 cells assessed as propidium iodide uptake at 3 to 48 uM after 1 hr by FACS flow cytometric analysis; type: functional, cell-based
[7] = system: ECV-304; experiment: Membrane permeabilization on human ECV304 cells at 24 uM measured every 15 secs for 3 hrs by real time impedance-based plate reader analysis; type: functional, cell-based
[8] = Hemolytic activity against human RBC at 12 uM after 30 mins relative to control; type: ADME, cell-based, Erythrocyte; settings: red blood cells (RBC), read-out: Activity
[9] = Hemolytic activity against human RBC at 6 uM after 30 mins relative to control; type: ADME, cell-based, Erythrocyte; settings: red blood cells (RBC), read-out: Activity
[10] = Hemolytic activity against human RBC at 3 uM after 30 mins relative to control; type: ADME, cell-based, Erythrocyte; settings: red blood cells (RBC), read-out: Activity
[11] = system: ECV-304; experiment: Membrane permeabilization effect on lysosome of human ECV304 cells at 6 to 48 uM after 1 hr by N-Acetylglucosaminidase release assay; type: functional, cell-based
[12] = system: ECV-304; experiment: Membrane permeabilization effect on human ECV304 cells assessed as induction of membrane lysis at 48 uM after 1 hr; type: functional, cell-based
[13] = system: ECV-304; experiment: Membrane permeabilization effect on human ECV304 cells assessed as increase in propidium iodide uptake at 24 uM after 1 hr by FACS flow cytometric analysis; type: functional, cell-based
[14] = system: ECV-304; experiment: Membrane permeabilization effect on human ECV304 cells at 3 uM measured every 15 secs for 3 hrs by real time impedance-based plate reader analysis; type: functional, cell-based
[15] = Hemolytic activity against human RBC at 1.5 to 48 uM after 30 mins; type: ADME, cell-based; settings: erythrocyte, 0.5 h
[16] = system: ECV-304; experiment: Membrane permeabilization effect on lysosome of human ECV304 cells up to 48 uM after 1 hr by N-Acetylglucosaminidase release assay; type: functional, cell-based
[17] = system: ECV-304; experiment: Membrane permeabilization effect on human ECV304 cells assessed as propidium iodide uptake up to 48 uM after 1 hr by FACS flow cytometric analysis; type: functional, cell-based
[18] = system: ECV-304; experiment: Membrane permeabilization effect on human ECV304 cells assessed as normalized cell index at 24 uM measured every 15 secs for 3 hrs by real time impedance-based plate reader analysis relative to control relative to control; type: functional
[19] = system: ECV-304; experiment: Membrane permeabilization effect on human ECV304 cells assessed as normalized cell index at 12 uM measured every 15 secs for 3 hrs by real time impedance-based plate reader analysis relative to control; type: functional
[20] = system: ECV-304; experiment: Membrane permeabilization effect on human ECV304 cells at 3 to 6 uM measured every 15 secs for 3 hrs by real time impedance-based plate reader analysis; type: functional, cell-based
[21] = system: ECV-304; experiment: Membrane permeabilization effect on human ECV304 cells at 3 to 24 uM measured every 15 secs for 3 hrs by real time impedance-based plate reader analysis; type: functional, cell-based

Q: For `CCC(C)C(CC(O)CC(=O)O[C@H]1[C@@H](O)[C@@H](C)O[C@@H](OC(=O)[C@]23CCC(C)(C)C[C@H]2C2=CC[C@@H]4[C@@]5(C)CC[C@H](O[C@H]6O[C@H](C(=O)O)[C@@H](O)[C@H](O[C@@H]7OC[C@@H](O)[C@H](O)[C@H]7O)[C@H]6O[C@@H]6O[C@H](CO)[C@H](O)[C@H](O)[C@H]6O)[C@@](C)(C=O)[C@@H]5CC[C@@]4(C)[C@]2(C)C[C@H]3O)[C@@H]1O[C@@H]1O[C@@H](C)[C@H](O[C@@H]2OC[C@@H](O)[C@H](O[C@@H]3OCC(O)(O)[C@H]3O)[C@H]2O)[C@@H](O[C@@H]2O[C@H](CO)[C@@H](O)[C@H](O)[C@H]2O)[C@H]1O)OC(=O)CC(O)CC(O[C@@H]1O[C@@H](CO)[C@H](O)[C@H]1O[C@@H]1O[C@@H](C)[C@H](O)[C@@H](O)[C@H]1O)C(C)CC` (stereo in doubt; form 2) [listing 1 of 2 here], which Activity [1] is on record?
A: Toxic

Q: And the hemolysis at 0.5 h, 24 µM [2]?
A: 61%

Q: And the Activity [3]?
A: Non-toxic

Q: With `CCC(C)C(CC(O)CC(=O)O[C@H]1[C@@H](O)[C@@H](C)O[C@@H](OC(=O)[C@]23CCC(C)(C)C[C@H]2C2=CC[C@@H]4[C@@]5(C)CC[C@H](O[C@H]6O[C@H](C(=O)O)[C@@H](O)[C@H](O[C@@H]7OC[C@@H](O)[C@H](O)[C@H]7O)[C@H]6O[C@@H]6O[C@H](CO)[C@H](O)[C@H](O)[C@H]6O)[C@@](C)(C=O)[C@@H]5CC[C@@]4(C)[C@]2(C)C[C@H]3O)[C@@H]1O[C@@H]1O[C@@H](C)[C@H](O[C@@H]2OC[C@@H](O)[C@H](O[C@@H]3OCC(O)(O)[C@H]3O)[C@H]2O)[C@@H](O[C@@H]2O[C@H](CO)[C@@H](O)[C@H](O)[C@H]2O)[C@H]1O)OC(=O)CC(O)CC(O[C@@H]1O[C@@H](CO)[C@H](O)[C@H]1O[C@@H]1O[C@@H](C)[C@H](O)[C@@H](O)[C@H]1O)C(C)CC` (stereo in doubt; form 2) [listing 2 of 2 here] as the compound, how does the Activity [4] read?
A: inactive

Q: What about the Activity [5] of the same compound?
A: inactive

Q: What about the Activity [6] of the same compound?
A: inactive

Q: What about the Activity [7] of the same compound?
A: inactive

Q: Which hemolysis at 0.5 h, 12 µM [8] does the source give for `C[C@@H]1CC[C@@]2(OC1)O[C@H]1[C@@H](O)[C@H]3[C@@H]4CC[C@H]5C[C@@H](O[C@@H]6O[C@H](CO)[C@H](O[C@@H]7O[C@H](CO)C(O)[C@H](O[C@@H]8OC[C@@H](O)[C@H](O)[C@H]8O)[C@H]7O[C@@H]7O[C@H](CO)[C@H](O)[C@H](O[C@@H]8O[C@H](CO)[C@@H](O)[C@H](O)[C@H]8O)[C@H]7O)[C@H](O)[C@H]6O)[C@H](O)C[C@]5(C)[C@H]4CC[C@]3(C)[C@H]1[C@@H]2C` (stereo partly drawn) [DIGITONIN] here?
A: > 80%

Q: And the hemolysis at 0.5 h, 6 µM [9]?
A: 68%

Q: And the hemolysis at 0.5 h, 3 µM [10]?
A: 22%

Q: And the Activity [5]?
A: inactive

Q: And the Activity [11]?
A: Active

Q: And the Activity [12]?
A: Active

Q: And the Activity [13]?
A: Active

Q: And the Activity [14]?
A: Active

Q: What does the source list for `CC1(C)[C@@H](O[C@H]2O[C@H](C(=O)O)[C@@H](O)[C@H](O)[C@H]2O[C@@H]2O[C@H](C(=O)O)[C@@H](O)[C@H](O)[C@H]2O)CC[C@]2(C)[C@H]3C(=O)C=C4[C@@H]5C[C@@](C)(C(=O)O)CC[C@]5(C)CC[C@@]4(C)[C@]3(C)CC[C@@H]12` [GLYCYRRHIZIN]?
A: Activity [15]: Non-toxic; Activity [5]: inactive; Activity [16]: inactive; Activity [17]: inactive; Activity [18]: inactive; Activity [19]: inactive; Activity [20]: inactive; Activity [21]: inactive
